Measurements published in the NIST ThermoML archive (doi:10.1021/je200820v).
± gives the expanded uncertainty stated by the source.

Tests used:
[1] = excess molar enthalpy (molar enthalpy of mixing); xn = mol fraction of the nth substance listed; details: 303.15 K, 101 kPa, Liquid, Calvet calorimetry
[2] = Liquid, Closed cell (Static) method

| SMILES | vapor or sublimation pressure ([2]; 273.15 K) [kPa] | vapor or sublimation pressure ([2]; 293.15 K) [kPa] | vapor or sublimation pressure ([2]; 298.15 K) [kPa] | vapor or sublimation pressure ([2]; 303.15 K) [kPa] | vapor or sublimation pressure ([2]; 313.15 K) [kPa] | vapor or sublimation pressure ([2]; 323.15 K) [kPa] | vapor or sublimation pressure ([2]; 333.15 K) [kPa] | vapor or sublimation pressure ([2]; 343.15 K) [kPa] | vapor or sublimation pressure ([2]; 353.15 K) [kPa] | vapor or sublimation pressure ([2]; 363.15 K) [kPa] | further results |
| --- | --- | --- | --- | --- | --- | --- | --- | --- | --- | --- | --- |
| CCN(CC)CCN [N,N-diethylethane-1,2-diamine] + CCCCCCC | – | – | – | – | – | – | – | – | – | – | excess molar enthalpy ([1]; x1 = 0.0612): 0.0679 ± 0.00287 kcal/mol; excess molar enthalpy ([1]; x1 = 0.1118): 0.115 ± 0.00478 kcal/mol; excess molar enthalpy ([1]; x1 = 0.1488): 0.143 ± 0.00598 kcal/mol; excess molar enthalpy ([1]; x1 = 0.2038): 0.179 ± 0.00741 kcal/mol; excess molar enthalpy ([1]; x1 = 0.2452): 0.201 ± 0.00813 kcal/mol; excess molar enthalpy ([1]; x1 = 0.3051): 0.222 ± 0.00908 kcal/mol; excess molar enthalpy ([1]; x1 = 0.4078): 0.24 ± 0.0098 kcal/mol; excess molar enthalpy ([1]; x1 = 0.5068): 0.239 ± 0.0098 kcal/mol; excess molar enthalpy ([1]; x1 = 0.6156): 0.216 ± 0.00884 kcal/mol; excess molar enthalpy ([1]; x1 = 0.7084): 0.183 ± 0.00741 kcal/mol; excess molar enthalpy ([1]; x1 = 0.7471): 0.164 ± 0.00669 kcal/mol; excess molar enthalpy ([1]; x1 = 0.8058): 0.135 ± 0.0055 kcal/mol; excess molar enthalpy ([1]; x1 = 0.8841): 0.0866 ± 0.00359 kcal/mol |
| CCCCCCC [heptane] | 1.536 ± 0.036 | 4.76 ± 0.1 | 6.135 ± 0.13 | 7.829 ± 0.16 | 12.39 ± 0.26 | 18.96 ± 0.39 | 28.14 ± 0.57 | 40.64 ± 0.83 | 57.27 ± 1.2 | 78.94 ± 1.6 | – |
| CCN(CC)CCN [N,N-diethylethane-1,2-diamine] | 0.1291 ± 0.005 | 0.5288 ± 0.014 | 0.7256 ± 0.019 | 0.9831 ± 0.025 | 1.741 ± 0.04 | 2.957 ± 0.064 | 4.833 ± 0.1 | 7.634 ± 0.16 | 11.7 ± 0.24 | 17.43 ± 0.36 | – |
